Reference: article PMC12593965, “Determination of Retention Behavior and pK a Values of Some Phenothiazines with Green Chemistry Approach” (ACS Omega, 2025)
Where two headings read alike, the source gives them in different places.

How the values were obtained:
[1] = RPLC determination of sspKa in ACN-water binary mixtures (conventional RPLC); assay type: physicochemical; details: standard deviation in parentheses
Method: (§1) The analysis of the compounds on the HPLC column was determined in binary mixtures of ACN–water and EtOH–water containing 50, 55, and 60% (v/v) organic solvents at varying pH values (5.5–11.5). Buffer compounds containing 30 mM o-H3PO4 and NH4Cl at the same concentration were used in the mobile phases according to the pH values at which the buffers were effective.
(§2) The pH value of the mobile phase was adjusted by adding a 1 M NaOH solution to the mobile phase containing o-H3PO4 and by adding concentrated NH3 solution to the mobile phase containing ammonium chloride. The pH values of the binary mixtures in this mobile phase were evaluated according to the International Union of Pure and Applied Chemistry (IUPAC) guideline, taking into account the reference pH values obtained from the National Institute of Standards and Technology (NIST). − KHP (0.05 mol/kg) was used as a reference standard for electrode calibration in hydroorganic mixtures. The pH value (pHx) of this hydroorganic mixture can be determined by eq . pHx=pHs+Es−Ex/(ln10)RT/F 1
(§3) Solutions of the investigated compounds in binary mixtures were prepared daily. Standard solutions at 100 μg/mL concentrations were prepared in the studied mobile phase. Fresh solutions were prepared daily and stored at +4 °C in the dark until analysis. For testing, a 20 μL sample was injected three times into the HPLC instrument. The average t R was calculated from these replicates, showing precision with a relative standard deviation (%RSD) of approximately 0.01.
(§4) This liquid chromatographic study was performed at 25 and 37 °C. Chromatographic determination of the compounds was performed on a Kinetex EVO C18 (Phenomenex, 150 × 4.6 mm ID, 5 μm) core–shell column at a constant flow rate of 1 mL/min. There are no data in the literature regarding the determination of the retention behavior of compounds by analysis with HPLC columns produced with the core–shell technique. Additionally, the theoretical plate number of the column being 2000 and above and the tailing factor being below 2 indicate optimum column performance and satisfactory peak symmetry.
(§5) The t R values of promethazine, promazine, and trimeprazine for the study on the HPLC column were determined by using the RPLC method at different pH values in binary mixtures. The s ^spK a values of the ionizable and molecular forms (BH^+, B) were calculated using the nonlinear regression program (NLREG).
(§6) The intrinsic t R (t RBH^+ , t RB) and s ^spK a values of the studied compounds were calculated in the NLREG program using the average t R values determined depending on the changing EtOH and ACN concentrations and pH values in the mobile phase. It is seen that the standard deviation values of the sigmoidal fitting parameters (t RBH^+ , t RB, and s ^spK a) given in Table are very small. Since good results were obtained by using the t R value directly, the k value was not used. Although the changes in s ^spK a values according to the solvent composition in the mobile phase used were different for each compound, the same type of sigmoidal behavior was obtained as in Figure . The s ^spK a of basic compounds decreases mainly due to electrostatic interactions that contribute to the pK a value. Since ACN (0.46) and EtOH (0.65) have lower relative polarity compared to water (1.00), the solute–solvent polar interaction decreases as the amount of organic solvent in the mobile phase increases. Therefore, the t R value increases as the pH value of the mobile phase increases, while the t R value decreases as the amount of organic solvents in the mobile phase increases. In the mobile phase rich in ACN (0.25 ≤ X ACN ≤ 0.33) and EtOH (0.26 ≤ X EtOH ≤ 0.35), preferential solvation with water exists, and this can explain the decrease in the s ^spK a values of the studied compounds when the amount of organic solvent in the mobile phase increases. ,

[2] = RPLC determination of sspKa in EtOH-water binary mixtures (green RPLC); assay type: physicochemical; details: standard deviation in parentheses
Method: as §1, §2, §3, §4, §5, §6

[3] = Aqueous pKa (wwpKa) calculated from sspKa via X solvent - sspKa and 1/ε - sspKa linear relationships; assay type: physicochemical; details: for wwpKa, 1/εACN - sspKa approach / wwpKa, X ACN - sspKa approach: from ACN-water data; for wwpKa, 1/εEtOH - sspKa approach / wwpKa, X EtOH - sspKa approach: from EtOH-water data
Method: The w ^wpK a values of promethazine, promazine, and trimeprazine in a water medium were determined by evaluating the obtained s ^spK a values of the compounds with the X solvent – s ^spK a , and the reciprocal of the solvent’s dielectric constant (1/ε) – s ^spK a relationships.
In this study, the w ^wpK a values of the examined compounds were determined based on the mole fraction of solvent-s ^spK a (X solvent – s ^spK a) and 1/εsolvent – s ^spK a approaches. In the calculation using the solvent mole fraction, the intercept values of the equation obtained from the linear relationship between the organic solvent X solvent and s ^spK a give the w ^wpK a values of the compounds examined.
To confirm the computed w ^wpK a values, an alternative approach was employed. Within the scope of the study, the correlation between the inverse of the dielectric constant value of the organic solvent (1/ε) and the s ^spK a values of the compounds was utilized. Since the ε values depend on the temperature, these values were taken from Gagliardi et al. and Navarkhele and Navarkhele for the two temperatures under study. , In the obtained linear equations, ε values in the water environment were used for increasing temperatures, and w ^wpK a values for the compounds could be determined. There was a decrease in the dielectric constant with the decrease in solvent polarity.
Figure illustrates the linear relationship between the solvent’s macroscopic constant X solvent and s ^spK a values.

[4] = Percent ionization of the basic functional group by Henderson-Hasselbach equation; assay type: physicochemical; details: from wwpKa at 37 °C (EtOH-water)
From the text: Drug molecules can ionize at different pH ranges, and the pK a value serves as a universal measure of ionization. […] Changing the ionic form of a drug can affect its action, absorption, and therapeutic efficacy depending on the pH of the medium. Therefore, evaluating the degree of ionization of the compounds selected in this study is crucial. Using the Henderson–Hasselbach equation, the percent ionization and pK a (at 50% ionization) of the basic functional group of each compound at different pH values were calculated (Figure S4). Since a green chemistry approach was preferred in this study, the w ^wpK a values at 37 °C, determined from data obtained from an EtOH-water binary mixture, were used in the calculation of the percentage ionization. […] At a pH value 2 pH units above the pK a, the basic compound is in its un-ionized form. It is known that the hydrophilic properties of compounds decrease as the alkyl chain length increases. According to the data in Table S2, the percentage ionization values increase as the alkyl chain length increases.

[5] = cited from earlier work
[6] = source not stated; cited from earlier work

Row | Compound | sspKa ([1]; 50% (v/v) ACN-water, 25 °C) | sspKa ([1]; 50% (v/v) ACN-water, 37 °C) | sspKa ([1]; 55% (v/v) ACN-water, 25 °C) | sspKa ([1]; 55% (v/v) ACN-water, 37 °C) | sspKa ([1]; 60% (v/v) ACN-water, 25 °C) | sspKa ([1]; 60% (v/v) ACN-water, 37 °C) | sspKa ([2]; 50% (v/v) EtOH-water, 25 °C) | sspKa ([2]; 50% (v/v) EtOH-water, 37 °C) | sspKa ([2]; 55% (v/v) EtOH-water, 25 °C) | sspKa ([2]; 55% (v/v) EtOH-water, 37 °C) | sspKa ([2]; 60% (v/v) EtOH-water, 25 °C) | sspKa ([2]; 60% (v/v) EtOH-water, 37 °C) | wwpKa, 1/εACN - sspKa approach ([3]; 25 °C) | wwpKa, X ACN - sspKa approach ([3]; 25 °C) | wwpKa, 1/εACN - sspKa approach ([3]; 37 °C) | wwpKa, 1/εEtOH - sspKa approach ([3]; 25 °C) | wwpKa, X EtOH - sspKa approach ([3]; 25 °C) | wwpKa, 1/εEtOH - sspKa approach ([3]; 37 °C) | wwpKa, X EtOH - sspKa approach ([3]; 37 °C) | % Ionization value ([4]; pH 2.0) [%] | other results
1 | CN(C)CCCN1c2ccccc2Sc2ccccc21 [promazine] | 9.265 (0.088) | 9.195 (0.036) | 9.096 (0.012) | 9.042 (0.082) | 8.867 (0.009) | 8.857 (0.082) | 9.185 (0.042) | 9.048 (0.024) | 8.978 (0.008) | 8.914 (0.053) | 8.808 (0.042) | 8.805 (0.066) | 10.361 | 10.468 | 10.120 | 10.302 | 10.407 | 9.766 | 9.836 | 100 | wwpKa, X ACN - sspKa approach ([3]; 37 °C): 10.213; % Ionization value ([4]; pH 7.4): 99.635%; % Ionization value ([4]; pH 9.0): 87.269%; % Ionization value ([4]; pH 10.0): 40.670%; % Ionization value ([4]; pH 12.0): 0.681%; pKa, literature values ([5]; 37 °C): 9.11 ± 0.03; logP [6]: 3.75
2 | CC(CN1c2ccccc2Sc2ccccc21)N(C)C (stereo not shown) [promethazine] | 9.167 (0.064) ^a | 9.108 (0.045) | 9.007 (0.064) | 8.947 (0.097) | 8.868 (0.075) | 8.806 (0.053) | 9.117 (0.011) ^a | 8.926 (0.082) | 8.999 (0.008) | 8.824 (0.009) | 8.900 (0.071) | 8.666 (0.031) | 9.980 | 10.056 | 9.924 | 9.761 | 9.821 | 9.716 | 9.787 | 100 | wwpKa, X ACN - sspKa approach ([3]; 37 °C): 10.006; % Ionization value ([4]; pH 7.4): 99.591%; % Ionization value ([4]; pH 9.0): 85.962%; % Ionization value ([4]; pH 10.0): 37.979%; % Ionization value ([4]; pH 12.0): 0.609%; logP [6]: 3.14
3 | CC(CN(C)C)CN1c2ccccc2Sc2ccccc21 (stereo not shown) [trimeprazine] | 9.643 (0.078) | 9.470 (0.073) | 9.527 (0.038) | 9.329 (0.050) | 9.425 (0.062) | 9.202 (0.047) | 9.388 (0.012) | 9.329 (0.034) | 9.278 (0.016) | 9.243 (0.091) | 9.167 (0.034) | 9.118 (0.045) | 10.134 | 10.268 | 10.112 | 10.049 | 10.110 | 9.968 | 10.027 | 100 | % Ionization value ([4]; pH 7.4): 99.765%; % Ionization value ([4]; pH 9.0): 91.410%; % Ionization value ([4]; pH 10.0): 51.554%; % Ionization value ([4]; pH 12.0): 1.053%; pKa, literature values ([5]; 25 °C, different methods (CE, potentiometry, UV-Vis)): 10.12; logP [6]: 4.11
